Experimental data as given in patent publication US12186283B2, “Bismuth-thiol compositions and methods of use” (Microbion Corporation, priority 2018, dated 2025).
In brackets after ≈: the same amount, converted by molar mass. Where two headings read alike, the source gives them in different places. Marks after values point to notes of the source that are not given here.

Tests used:
Klebsiella pneumoniae = conditions: K. pneumoniae ATCC BAA-1705, QC organism; cited from earlier work
P. aeruginosa [1] = assay: Broth microdilution MIC (Example 10)
Acinetobacter baumannii [2] = assay: Broth microdilution MIC (Example 12)
Acinetobacter baumannii [3] = assay: Broth microdilution MIC (Example 11); assay type: cell-based; conditions: A. baumannii MMX 3373; Sensitive
[4] = system: anaerobes (Bacteroides fragilis and Clostridium difficile); assay: Agar dilution MIC (Example 11), group statement; assay type: cell-based; conditions: B. fragilis and C. difficile QC isolates, C. difficile ribotypes incl. 027
Experimental: The test agents were stored at room temperature until assayed. All test agents were suspended and diluted in 100% dimethylsulfoxide (DMSO), and were ultimately tested at a final concentration of 0.06-64 μg/mL.
The susceptibility of anaerobic bacteria was determined by agar dilution using Brucella Agar (BD/BBL; Lot No. 5237692) supplemented with 5 μg/mL hemin (Sigma, St. Louis, MO; Lot No. 108K1088), 1 μg/mL Vitamin K1 and 5% (v/v) laked sheep blood (Cleveland Scientific, Bath, OH; Lot No. 322799).
MIC values for anaerobic bacteria were determined using a reference agar dilution method as described by CLSI (6). Organisms were grown at 35° C. in the Bactron II Anaerobic Chamber (Shel Lab, Cornelius, OR) for approximately 48 hr prior to the assay. Drug dilutions and drug-supplemented agar plates were prepared manually per CLSI (6). The plates were allowed to stand at room temperature for 1 hr to allow the agar surface to dry and pre-reduced for approximately 1 hr in the anaerobe chamber prior to inoculation. Each isolate was suspended to the equivalent of a 0.5 McFarland standard in Brucella broth using a turbidity meter (Dade Behring MicroScan, West Sacramento, CA). Each bacterial cell suspension was then diluted 1:10 in Brucella broth and transferred to wells in a stainless steel replicator block which was used to inoculate the test plates. […] The MIC was read per CLSI guidelines (6).

[5] = system: beta-hemolytic streptococci (S. pyogenes, S. agalactiae); assay: Broth microdilution MIC (Example 11); assay type: cell-based, Streptococcus pyogenes, Streptococcus agalactiae
[6] = system: Achromobacter spp. biofilm; assay: Activity against biofilms; conditions: tested up to 250 μg/mL
E. coli ATCC 25922 [7] = assay: Broth microdilution MIC, QC organism (Example 13, Table 110); assay type: cell-based, Escherichia coli
From the text: MECs were only reported where observed.

[8] = system: M. abscessus / MABSC biofilms; assay type: cell-based, Mycobacterium abscessus complex; conditions: AMT0130-8, MABSC CF-isolate
Aspergillus spp. = assay: Broth microdilution MIC/MEC, mold (Example 13); assay type: cell-based; conditions: for MEC (minimum effective concentration): read-out: MEC at 48 hr (MIC0 not observed)
S. aureus ATCC 29213 [9] = conditions: S. aureus ATCC 29213, QC organism; cited from earlier work
[10] = Particle size distribution of BisEDT microparticles; assay type: physicochemical; conditions: microparticles resuspended in 2% poloxamer 188, Nanosizer/Zetasizer Nano-S
Experimental: The dried particulate matter was characterized to assess the particle size properties. Briefly, microparticles were resuspended in 2% poloxamer 188 (Pluronic® F-68) (BASF, Mt. Olive, NJ) and the suspension was sonicated for 10 minutes in a water bath sonicator at standard setting prior to analysis using a Nanosizer/Zetasizer Nano-S particle analyzer (model ZEN1600 (without zeta-potential measuring capacity), Malvern Instruments, Worcestershire, UK) according to the manufacturer's recommendations.
It was observed that careful control of the reaction temperature and the rate of 1,2 ethanedithiol addition had pronounced impact on the BisEDT particle size distribution.

P. aeruginosa [11] = conditions: control strain ATCC 27853 P. aeruginosa; cited from earlier work
E. coli ATCC 25922 [12] = conditions: CLSI established QC range; cited from earlier work
S. aureus ATCC 29213 [13] = conditions: CLSI established QC range; cited from earlier work

C[C@@H](O)[C@H]1C(=O)N2C(C(=O)O)=C(S[C@@H]3CN[C@H](C(=O)N(C)C)C3)[C@H](C)[C@H]12 [MEM]
MIC, QC range (Klebsiella pneumoniae): (8-64) μg/mL
MIC (P. aeruginosa [1]; P. aeruginosa isolate 103 (ATCC 25922), QC strain, initial MIC testing): 1 µg/mL (≈ 2.61 µM)
MIC (P. aeruginosa [1]; P. aeruginosa isolate 103 (ATCC 25922), during FIC testing, each agent tested alone for QC, one replicate): 1 µg/mL
MIC (P. aeruginosa [1]; P. aeruginosa isolate 1497 (TOB-R, AMK-R, CIP-I, AZT-R, COL-R), initial MIC testing): 0.06 µg/mL (≈ 0.156 µM)
MIC (P. aeruginosa [1]; P. aeruginosa isolate 1530 (TOB-R, AMK-R, CIP-R), initial MIC testing): 0.5 µg/mL (≈ 1.3 µM)
MIC (P. aeruginosa [1]; P. aeruginosa isolate 1553 (TOB-R, AMK-R, CIP-R), initial MIC testing): 0.5 µg/mL (≈ 1.3 µM)
MIC (P. aeruginosa [1]; P. aeruginosa isolate 6322 (MEM-R, TOB-R, AMK-R, CIP-R, AZT-R), initial MIC testing): 16 µg/mL (≈ 41.7 µM)
MIC (P. aeruginosa [1]; P. aeruginosa isolate 6977 (MEM-I, TOB-R, CIP-R, AZT-I), initial MIC testing): 4 µg/mL (≈ 10.4 µM)
MIC (P. aeruginosa [1]; P. aeruginosa isolate 7745 (MEM-R, CIP-R, AZT-R), initial MIC testing): 16 µg/mL (≈ 41.7 µM)
MIC (P. aeruginosa [1]; P. aeruginosa isolate 7754 (MEM-R, TOB-R, CIP-R, AZT-I), initial MIC testing): 32 µg/mL (≈ 83.4 µM)
MIC (P. aeruginosa [1]; P. aeruginosa isolate 7762 (MEM-I, CIP-I), initial MIC testing): 4 µg/mL (≈ 10.4 µM)
MIC (P. aeruginosa [1]; P. aeruginosa isolate 7871 (MEM-R, AZT-I), initial MIC testing): 8 µg/mL (≈ 20.9 µM)
MIC (P. aeruginosa [1]; P. aeruginosa isolate 7874, initial MIC testing): 1 µg/mL (≈ 2.61 µM)
MIC (P. aeruginosa [1]; P. aeruginosa isolate 7886 (MEM-R, CIP-R, AZT-R), initial MIC testing): 32 µg/mL (≈ 83.4 µM)
MIC (P. aeruginosa [1]; P. aeruginosa isolate 8797 (MEM-R, TOB-R, AMK-R, CIP-R, AZT-R, COL-R), initial MIC testing): 32 µg/mL (≈ 83.4 µM)
MIC (P. aeruginosa [1]; P. aeruginosa isolate 8798 (MEM-R, TOB-R, AMK-R, CIP-R, AZT-R, COL-R), initial MIC testing): 64 µg/mL (≈ 167 µM)
MIC (P. aeruginosa [1]; P. aeruginosa isolate 9108 (CIP-R, AZT-I), initial MIC testing): 0.5 µg/mL (≈ 1.3 µM)
MIC (Acinetobacter baumannii [2]; Acinetobacter baumannii CDC 273, ESBL/OXA): >8 µg/mL
MIC (Acinetobacter baumannii [2]; Acinetobacter baumannii CDC 274, ESBL/OXA): >8 µg/mL
MIC (Acinetobacter baumannii [2]; Acinetobacter baumannii CDC 275, ESBL/OXA): >8 µg/mL
MIC (Acinetobacter baumannii [2]; Acinetobacter baumannii CDC 277, ESBL/OXA): >8 µg/mL
MIC (Acinetobacter baumannii [2]; Acinetobacter baumannii CDC 284, ESBL/OXA): >8 µg/mL
MIC (Acinetobacter baumannii [2]; Acinetobacter baumannii CDC 307, OXA): 8 µg/mL (≈ 20.9 µM)
MIC (Acinetobacter baumannii [2]; Acinetobacter baumannii CDC 308, ESBL/OXA): 8 µg/mL (≈ 20.9 µM)
MIC (Acinetobacter baumannii [2]; Acinetobacter baumannii CDC 311, OXA): >8 µg/mL
MIC (Acinetobacter baumannii [2]; Acinetobacter baumannii CDC 312, OXA): 4 µg/mL (≈ 10.4 µM)
MIC (Acinetobacter baumannii [2]; Acinetobacter baumannii CDC 313, ESBL/OXA): >8 µg/mL
MIC (Acinetobacter baumannii [2]; Acinetobacter baumannii NCTC 13304, OXA): >8 µg/mL

CC(S)C(C)S.[Bi] (centres unmarked) [BisBDT, bismuth-2,3-butanedithiol]
MIC (Acinetobacter baumannii [3]): 0.5 µg/mL
MIC values (range across isolates) [4]: 1 to 4 µg/mL
MIC ([5]; S. agalactiae MMX 3741, ERY^R CC^R): 0.25 µg/mL
MIC ([5]; S. agalactiae MMX 3743, ERY^R CC^R): 0.25 µg/mL
MIC ([5]; S. agalactiae MMX 4077, ERY^R CC^R): 0.25 µg/mL
MIC ([5]; S. agalactiae MMX 4086, ERY^R CC^R): 0.25 µg/mL
MIC values (range across isolates) ([5]; macrolide-resistant S. pyogenes, clindamycin-resistant S. agalactiae): 0.03 to 2 µg/mL
reduction in viable biofilm cells [6]: 5 log
MIC 24 hr (E. coli ATCC 25922 [7]): 0.5^a
reduction in biofilm cell viability [8]: only very modest reductions in biofilm cell viability
MIC (Aspergillus spp.; 24 h, A. flavus ATCC 22546, 24 hr, read-out: MIC0 24 hr (complete inhibition)): 1 µg/mL
MIC (Aspergillus spp.; 24 h, A. flavus ATCC 204304, 24 hr, read-out: MIC0 24 hr (complete inhibition)): 4 µg/mL
MIC (Aspergillus spp.; 24 h, A. flavus MMX 7935, 24 hr, read-out: MIC0 24 hr (complete inhibition)): 8 µg/mL
MIC (Aspergillus spp.; 24 h, A. fumigatus ATCC 204305, 24 hr, read-out: MIC0 24 hr (complete inhibition)): 8 µg/mL
MIC (Aspergillus spp.; 24 h, A. fumigatus ATCC MYA-3626, 24 hr, read-out: MIC0 24 hr (complete inhibition)): 2 µg/mL
MIC (Aspergillus spp.; 24 h, A. fumigatus MMX 5934, 24 hr, read-out: MIC0 24 hr (complete inhibition)): 2 µg/mL
MIC (Aspergillus spp.; 24 h, A. fumigatus MMX 5939, 24 hr, read-out: MIC0 24 hr (complete inhibition)): 2 µg/mL
MIC (Aspergillus spp.; 24 h, read-out: MIC0 24 hr (complete inhibition), A. terreus MMX 8229, 24 hr): 0.25 µg/mL
MIC (Aspergillus spp.; 48 h, A. flavus ATCC 22546, 48 hr, read-out: MIC0 48 hr (complete inhibition)): 2 µg/mL
MEC (minimum effective concentration) (Aspergillus spp.; 48 h, A. flavus ATCC 204304, 48 hr): 4 µg/mL
MIC (Aspergillus spp.; 48 h, A. flavus MMX 7935, 48 hr, read-out: MIC0 48 hr (complete inhibition)): 8 µg/mL
MEC (minimum effective concentration) (Aspergillus spp.; 48 h, A. fumigatus ATCC 204305, 48 hr): 4 µg/mL
MIC (Aspergillus spp.; 48 h, A. fumigatus ATCC MYA-3626, 48 hr, read-out: MIC0 48 hr (complete inhibition)): 4 µg/mL
MEC (minimum effective concentration) (Aspergillus spp.; 48 h, A. fumigatus MMX 5934, 48 hr): 4 µg/mL
MEC (minimum effective concentration) (Aspergillus spp.; 48 h, A. fumigatus MMX 5939, 48 hr): 4 µg/mL
MIC (Aspergillus spp.; 48 h, A. terreus MMX 8229, 48 hr, read-out: MIC0 48 hr (complete inhibition)): 1 µg/mL
MIC 24 hr (Aspergillus spp.; A. flavus ATCC 204304 (QC, Table 110), 24 hr): 4 µg/mL
MIC 48 hr, marked with footnote c (Aspergillus spp.; A. flavus ATCC 204304 (QC, Table 110), 48 hr, footnote c not given, probably MEC): 4^c
MIC 24 hr (Aspergillus spp.; A. fumigatus ATCC MYA-3626 (QC, Table 110), 24 hr): 2 µg/mL
MIC 48 hr (Aspergillus spp.; A. fumigatus ATCC MYA-3626 (QC, Table 110), 48 hr): 4 µg/mL
MIC (Aspergillus spp.; read-out: MIC0 48 hr (complete inhibition)): 2 µg/mL

C1C[S][Bi]([S]CC[S][Bi]2[S]CC[S]2)[S]1 [BisEDT, bismuth-1,2-ethanedithiol]
MIC, QC range (S. aureus ATCC 29213 [9]): (0.12-1) μg/mL
peak VMD [10]: about 1.3 microns
Expected MIC: acceptable range (P. aeruginosa [11]): 0.5 to 4 µg/mL
Expected MIC: goal (P. aeruginosa [11]): 1 to 2 µg/mL
QC Range 24 hr (E. coli ATCC 25922 [12]): 0.5-4
QC Range 24 hr (S. aureus ATCC 29213 [13]): 0.12-1
